From patent US11006626B2, “Compounds for protection of cells” (Sulfateq B.V., priority 2012, dated 2021)

Assays:
[1] = test system: PRP platelets; assay: PRP platelets stored with Sul 136, aggregation after stimulation with collagen; type: cell-based; conditions: 10 mM
Protocol: […] • The color and coagulation properties were visually analysed. • The thrombocyte cells that survived were counted and it was evaluated whether the thrombocytes were aggregated. • It was evaluated if the thrombocytes still were able to function after stimulation by the addition of ADP or under influence of collagen in a 96 well plate. • The adhesion was evaluated, meaning the ability of the platelets to bind collagen in a 6 well plate preincubated with collagen. • Via an ELISA assay, it was evaluated whether thromboxane was secreted from the platelets. Thromboxane facilitates aggregation and is produced by activated blood platelets.
(+means that the cells show aggregation, ++means strong aggregation, these platelets can thus be activated upon stimulation, −means no aggregation upon stimulation)

[2] = test system: apherese blood platelets; assay: Apheresis platelets stored with Sul 136, platelet activation with ADP and TRAP by flow cytometry (CD62p); type: cell-based; design: Flow cytometry ADP / Flow cytometry TRAP: unit not given here; conditions: for Flow cytometry ADP / Flow cytometry P-selectin MFI / Flow cytometry TRAP: stored at 4° C. with Sul 136
Protocol: 300 μM suspension of Sul 136 is added with a procedure, which keeps the bag content sterile and the Sul 136 is kept in suspension by frequent whirling and stored at 37° C. before it is added to the freshly harvested platelets. The Sul 136 suspension is added to three platelet bags directly from the bag. After addition, the content of the platelet bag is gently mixed. After 2 hours the first sample is drawn with a seal-docked sample bag. The sample bag is disconnected by welding and from this sample bag the samples are taken for hematology analyzing, aggregometer tests and the flow-cytometry tests. Swirling in the bag is reported by experience of the laboratory worker in the standard format. Platelets without Sul 136 put on a flatbed shaker and stored at room temperature were used as control. Another control is stored at 4° C. Platelet samples in which Sul 136 is added, are stored without shaking in a refrigerator at 4° C.
Platelet activation was performed on a Beckman Coulter FC 500 flowcytometer using CD 41 PE, CD 62p FITC, IgG1 FITC/IgG1 PE antibodies of a Beckman Coulter kit.
40 μl Dilution buffer was brought in about 15 minutes to 37° C.; 10 μl IgG FITC/IgG PE+10 μl CD41 PE was added and mixed with Vortex, incubated 5 min at room temperature; 1000 μl cold HBSS buffer was added; measurement in flowcytometer was performed.
40 μl Dilution buffer was brought in about 15 minutes to 37° C.; 10 μl CD41 PE+5 μl CD62 FITC was added and mixed with Vortex, incubated during 5 min. at room temperature; 1000 μl cold HBSS buffer was added; measurement in flowcytometer was performed.
36 μl Dilution buffer+4 μl ADP was brought in about 15 minutes to 37° C.; 10 μl CD41 PE+5 μl CD62 FITC was added and mixed with Vortex, incubated during 5 min. at room temperature; 1000 μl cold HBSS buffer was added; measurement in flowcytometer was performed.
36 μl Dilution buffer+4 μl TRAP was brought in about 15 minutes to 37° C.; 10 μl CD41 PE+5 μl CD62 FITC was added and mixed with Vortex; incubateed during 5 min. at room temperature; 1000 μl cold HBSS buffer was added; measurement in flowcytometer was performed.

## Cc1c(C)c2c(c(C)c1O)CCC(C)(C(=O)N1CCN(CC(=O)O)CC1)O2 (racemic) [SUL - 136, 2-(4-(6-hydroxy-2,5,7,8-tetramethylchroman-2-carbonyl)piperazin-1-yl)acetic acid]
[1]
  activity after stimulation with collagen: showed still activity
[2]; Donor 2, Day 1
  Flow cytometry ADP: 2.12
  Flow cytometry P-selectin MFI: 1.67 MFI
  Flow cytometry TRAP: 1.88
[2]; Donor 2, Day 2
  Flow cytometry ADP: 2.53
  Flow cytometry P-selectin MFI: 2.13 MFI
  Flow cytometry TRAP: 2.35
[2]; Donor 2, Day 3
  Flow cytometry ADP: 3.21
  Flow cytometry P-selectin MFI: 2.59 MFI
  Flow cytometry TRAP: 2.76
[2]; Donor 2, Day 5
  Flow cytometry ADP: 3.19
  Flow cytometry P-selectin MFI: 2.95 MFI
  Flow cytometry TRAP: 3.16
[2]; Donor 2, Day 8
  Flow cytometry ADP: 3.08
  Flow cytometry P-selectin MFI: 2.99 MFI
  Flow cytometry TRAP: 3.22
[2]; Donor 2, Day 10
  Flow cytometry ADP: 2.83
  Flow cytometry P-selectin MFI: 2.76 MFI
  Flow cytometry TRAP: 2.96
[2]; Donor 2, Day 12
  Flow cytometry ADP: 2.62
  Flow cytometry P-selectin MFI: 2.63 MFI
  Flow cytometry TRAP: 2.73
[2]; Donor 2, Day 19
  Flow cytometry ADP: 1.99
  Flow cytometry P-selectin MFI: 2.01 MFI
  Flow cytometry TRAP: 2.14
[2]; Donor 3, Day 1
  Flow cytometry ADP: 2.71
  Flow cytometry P-selectin MFI: 1.90 MFI
  Flow cytometry TRAP: 2.08
[2]; Donor 3, Day 2
  Flow cytometry ADP: 3.49
  Flow cytometry P-selectin MFI: 2.82 MFI
  Flow cytometry TRAP: 3.62
[2]; Donor 3, Day 3
  Flow cytometry ADP: 4.96
  Flow cytometry P-selectin MFI: 3.84 MFI
  Flow cytometry TRAP: 4.42
[2]; Donor 3, Day 5
  Flow cytometry ADP: 4.84
  Flow cytometry P-selectin MFI: 4.50 MFI
  Flow cytometry TRAP: 5.04
[2]; Donor 3, Day 8
  Flow cytometry ADP: 4.91
  Flow cytometry P-selectin MFI: 4.82 MFI
  Flow cytometry TRAP: 5.24
[2]; Donor 3, Day 10
  Flow cytometry ADP: 4.25
  Flow cytometry P-selectin MFI: 4.37 MFI
  Flow cytometry TRAP: 5.04
[2]; Donor 3, Day 12
  Flow cytometry ADP: 3.84
  Flow cytometry P-selectin MFI: 3.89 MFI
  Flow cytometry TRAP: 4.20
[2]; Donor 3, Day 19
  Flow cytometry ADP: 2.37
  Flow cytometry P-selectin MFI: 2.22 MFI
  Flow cytometry TRAP: 2.01
[2]; donor 1, Day 1
  Flow cytometry ADP: 3.07
  Flow cytometry P-selectin MFI: 2.09 MFI
  Flow cytometry TRAP: 3.57
[2]; donor 1, Day 2
  Flow cytometry ADP: 3.28
  Flow cytometry P-selectin MFI: 3.04 MFI
  Flow cytometry TRAP: 3.78
[2]; donor 1, Day 3
  Flow cytometry ADP: 4.12
  Flow cytometry P-selectin MFI: 3.73 MFI
  Flow cytometry TRAP: 4.95
[2]; donor 1, Day 5
  Flow cytometry ADP: 4.20
  Flow cytometry P-selectin MFI: 4.12 MFI
  Flow cytometry TRAP: 5.55
[2]; donor 1, Day 8
  Flow cytometry ADP: 4.83
  Flow cytometry P-selectin MFI: 4.82 MFI
  Flow cytometry TRAP: 5.52
[2]; donor 1, Day 10
  Flow cytometry ADP: 4.46
  Flow cytometry P-selectin MFI: 4.48 MFI
  Flow cytometry TRAP: 5.52
[2]; donor 1, Day 12
  Flow cytometry ADP: 4.43
  Flow cytometry P-selectin MFI: 4.57 MFI
  Flow cytometry TRAP: 4.42
[2]; donor 1, Day 19
  Flow cytometry ADP: 2.74
  Flow cytometry P-selectin MFI: 2.92 MFI
  Flow cytometry TRAP: 2.76
[2]; stored at 4° C. with compound vs. platelets stored at room temperature
  flow cytometry tests: similar
